Assays:
Kv4.3+DREAM channels = molecular target: T1, Kv4.3+DREAM channels (Homo sapiens, UniProt Q9UK17+Q9Y2W7); assay: Patch-clamp in CHO cells transiently transfected with Kv4.3 in the presence of DREAM; type: cell-based; details: 100 nM; for inhibitory effect of the Kv4.3+DREAM current (% decrease of the amount of charge passing through the membrane): CHO cells, FIG. 1B
T1 construct: expressed in transfected cells; host or cells: CHO cells, transient transfection
T1 sequence (Q9Y2W7 1-256): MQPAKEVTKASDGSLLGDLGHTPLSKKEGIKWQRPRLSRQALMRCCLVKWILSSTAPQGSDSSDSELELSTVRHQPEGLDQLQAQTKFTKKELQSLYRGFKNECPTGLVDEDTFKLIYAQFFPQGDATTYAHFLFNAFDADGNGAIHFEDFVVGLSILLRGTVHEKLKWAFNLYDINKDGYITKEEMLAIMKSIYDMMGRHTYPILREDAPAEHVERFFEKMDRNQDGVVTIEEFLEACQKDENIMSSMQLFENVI
T1 sequence (Q9UK17 1-655): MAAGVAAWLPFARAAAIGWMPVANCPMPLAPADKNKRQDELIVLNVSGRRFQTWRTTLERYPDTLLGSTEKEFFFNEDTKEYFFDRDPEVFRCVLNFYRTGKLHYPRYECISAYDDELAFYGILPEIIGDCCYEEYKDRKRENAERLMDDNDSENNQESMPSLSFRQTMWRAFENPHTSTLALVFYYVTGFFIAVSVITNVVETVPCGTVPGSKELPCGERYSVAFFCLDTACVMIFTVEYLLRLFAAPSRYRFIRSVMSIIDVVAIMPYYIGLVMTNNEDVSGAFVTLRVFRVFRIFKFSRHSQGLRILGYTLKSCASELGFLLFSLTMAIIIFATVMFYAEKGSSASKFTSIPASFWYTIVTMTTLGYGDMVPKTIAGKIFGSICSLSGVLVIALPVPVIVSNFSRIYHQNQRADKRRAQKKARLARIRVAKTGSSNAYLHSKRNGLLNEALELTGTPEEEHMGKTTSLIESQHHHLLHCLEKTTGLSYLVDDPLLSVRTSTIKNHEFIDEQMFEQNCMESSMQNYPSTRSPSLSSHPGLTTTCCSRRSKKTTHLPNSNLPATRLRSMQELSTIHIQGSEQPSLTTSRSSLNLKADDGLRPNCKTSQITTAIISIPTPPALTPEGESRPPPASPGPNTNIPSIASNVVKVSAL
Description: (§1) The new compounds synthesised according to this invention have been evaluated in vitro in voltage-binding assays in CHO cells transiently transfected with cDNA encoding Kv4.3 only or Kv4.3 in the presence of DREAM (Kv4.3+DREAM) using the patch-clamp technique. […] For some of the compounds evaluated, this effect is selective and is only observed in the presence of the DREAM channel modulator.

Kv4.3 channels = molecular target: T2, Kv4.3 channels (Homo sapiens, UniProt Q9UK17); assay: Patch-clamp in CHO cells transiently transfected with Kv4.3 only; type: cell-based; details: 100 nM, FIG. 1B
T2 construct: expressed in transfected cells; host or cells: CHO cells, transient transfection
T2 sequence (Q9UK17 1-655): T1 sequence (Q9UK17 1-655)
Description: as §1

[1] = test system: STHdh^Q111/Q111 cells infected with lentivirus expressing the complete human DREAM protein (Q111DR); assay: Neuroprotection against staurosporine-mediated apoptosis (caspase-3 activation) in Q111DR cells; type: cell-based, mouse; details: compound 100 nM, 1 h pre-incubation; staurosporine 1 μM for 5 h; compared with repaglinide (RP); FIG. 3
Experimental: FIG. 3. Analysis of the neuroprotective effect of compounds 9, 16, 22, 23 and 62 (100 nM) against the activation of caspase-3 mediated by staurosporine in ^Q111/Q111 cells infected with lentivirus expressing the complete human DREAM protein. The caspase-3 activity was measured after 1 h of pre-incubation of the compounds (100 nM) and subsequent exposure for 5 h of staurosporine at 1 μM. RP: Repaniglida.
(§2) In an immortalized cell line of mouse striatum infected with lentivirus STHdh^Q111/Q111 expressing the complete human DREAM protein (Q111DR), the neuroprotective effect of the compounds was tested against necrosis mediated by H2O2 and apoptosis mediated by staurosporine.

[2] = test system: STHdh^Q111/Q111 cells infected with lentivirus expressing the complete human DREAM protein (Q111DR); assay: Neuroprotection against H2O2-mediated necrosis (LDH release) in Q111DR cells; type: cell-based, mouse; details: compound 100 nM; H2O2 0.66 mM; FIG. 2
Experimental: FIG. 2. […] RP: Repaniglida.
as §2

| Compound | inhibitory effect of the Kv4.3+DREAM current (% decrease of the amount of charge passing through the membrane) (Kv4.3+DREAM channels) | inhibitory effect of the Kv4.3 current in the absence of DREAM (% decrease of the amount of charge passing through the membrane) (Kv4.3 channels) | selectivity of Kv4.3 current inhibition for the presence of DREAM (Kv4.3+DREAM channels; Kv4.3+DREAM versus Kv4.3 only) | activation of caspase-3 mediated by staurosporine, neuroprotective effect [1] | release of LDH (lactate dehydrogenase) mediated by H2O2, neuroprotective effect [2] |
| --- | --- | --- | --- | --- | --- |
| CCCCc1ccc(-c2ccc(C(=O)O)c(NC(=O)Cc3ccc(Cl)c(Cl)c3)c2)cc1 [Compound 35, 2-[2-(3,4-dichlorophenyl)acetylamino]-4-(4′-n-butylphenyl)benzoic acid] | only inhibit the Kv4.3 current in the presence of DREAM | only inhibit the Kv4.3 current in the presence of DREAM |  |  |  |
| O=C(Cc1ccc(Cl)c(Cl)c1)Nc1ccc(-c2ccccc2)cc1C(=O)O [Compound 42, 2-[2-(3,4-dichlorophenyl)acetylamino]-5-phenylbenzoic acid] | only inhibit the Kv4.3 current in the presence of DREAM | only inhibit the Kv4.3 current in the presence of DREAM |  |  |  |
| COC(=O)[C@@H](Cc1cn(C(c2ccccc2)(c2ccccc2)c2ccccc2)cn1)NC(=O)Cc1ccc(Cl)c(Cl)c1 [Compound 62, (2R)-2-[2-(3,4-dichlorophenyl)acetylamino]-3-(1-trityl-1H-imidazol-4-yl)methyl propanoate] | similarly inhibits the current generated by the Kv4.3 channels to that of the Kv4.3 channels in the presence of DREAM | similarly inhibits the current generated by the Kv4.3 channels | has no selectivity | lowest activation of caspase-3 | lowest LDH release |

— patent publication US10526276B2, “Dream neuronal calcium sensor-modulating compounds, and therapeutic uses thereof” (CONSEJO SUPERIOR DE INVESTIGACIONES CIENTÍFICAS, priority 2014, dated 2020)
